Source: ChEMBL document CHEMBL1155092, “Antibacterial activity of labdane diterpenoids from Stemodia foliosa” (2008)
≈ marks a conversion by molar mass, not a printed value. Calls of active or inactive are those of the source. The calls are words filed in the database; no cut-off is given here.

Tests used:
[1] = tested on: Bacillus subtilis; experiment: Antimicrobial activity against Bacillus subtilis; assay type: functional
[2] = tested on: Mycolicibacterium smegmatis; experiment: Antimicrobial activity against Mycobacterium smegmatis; assay type: functional
[3] = tested on: Micrococcus luteus; experiment: Antimicrobial activity against Micrococcus luteus; assay type: functional
[4] = tested on: Staphylococcus aureus; experiment: Antimicrobial activity against Staphylococcus aureus; assay type: functional
[5] = tested on: Mycolicibacterium phlei; experiment: Antimicrobial activity against Mycobacterium phlei; assay type: functional
[6] = tested on: Bacillus anthracis; experiment: Antimicrobial activity against Bacillus anthracis; assay type: functional
[7] = tested on: Bacillus cereus; experiment: Antimicrobial activity against Bacillus cereus; assay type: functional
[8] = tested on: Mycolicibacterium smegmatis; experiment: Antimicrobial activity against Mycobacterium smegmatis at 50 ug/ml; assay type: functional, organism-based
[9] = tested on: Bacillus anthracis; experiment: Antimicrobial activity against Bacillus anthracis at 50 ug/ml; assay type: functional, organism-based
[10] = tested on: Micrococcus luteus; experiment: Antimicrobial activity against Micrococcus luteus at 50 ug/ml; assay type: functional, organism-based
[11] = tested on: Mycolicibacterium phlei; experiment: Antimicrobial activity against Mycobacterium phlei at 50 ug/ml; assay type: functional, organism-based
[12] = tested on: Staphylococcus aureus; experiment: Antimicrobial activity against Staphylococcus aureus at 50 ug/ml; assay type: functional, organism-based
[13] = tested on: Bacillus subtilis; experiment: Antimicrobial activity against Bacillus subtilis at 50 ug/ml; assay type: functional, organism-based
[14] = tested on: Bacillus cereus; experiment: Antimicrobial activity against Bacillus cereus at 50 ug/ml; assay type: functional, organism-based

For `C=C[C@@]1(C)CC[C@@H]2[C@@]3(C)CCCC(C)(C)[C@@H]3[C@@H](OC(=O)CC(=O)O)C[C@@]2(C)O1`, which MIC [1] is on record?
The MIC was 15 µg/mL (≈ 38.2 µM).

What about the MIC [2] of the same molecule?
Its MIC is 7 µg/mL (≈ 17.8 µM).

And the MIC [3]?
The MIC was 17 µg/mL (≈ 43.3 µM).

And the MIC [4]?
Its MIC is 15 µg/mL (≈ 38.2 µM).

What about the MIC [5] of the same molecule?
The MIC was 9 µg/mL (≈ 22.9 µM).

And the MIC [6]?
The MIC was 20 µg/mL (≈ 51 µM).

What about the MIC [7] of the same molecule?
Its MIC is 15 µg/mL (≈ 38.2 µM).

With `CC[C@H]1OC(=O)[C@H](C)[C@@H](O[C@H]2C[C@@](C)(OC)[C@@H](O)[C@H](C)O2)[C@H](C)[C@@H](O[C@@H]2O[C@H](C)C[C@H](N(C)C)[C@H]2O)[C@](C)(OC)C[C@@H](C)C(=O)[C@H](C)[C@@H](O)[C@]1(C)O` [CLARITHROMYCIN] as the molecule, how does the MIC [1] read?
Its MIC is 1.7 µg/mL (≈ 2.27 µM).

What about the MIC [2] of the same molecule?
Its MIC is 0.5 µg/mL (≈ 0.668 µM).

What about the MIC [3] of the same molecule?
The MIC was 2 µg/mL (≈ 2.67 µM).

What about the MIC [4] of the same molecule?
Its MIC is 0.8 µg/mL (≈ 1.07 µM).

And the MIC [5]?
Its MIC is 0.5 µg/mL (≈ 0.668 µM).

What about the MIC [6] of the same molecule?
Its MIC is 1.3 µg/mL (≈ 1.74 µM).

How did the Activity [8] turn out when `C=C[C@@]1(C)CC[C@@H]2[C@@]3(C)CCCC(C)(C)[C@@H]3[C@@H](OC(=O)CC(=O)OCCCC)C[C@@]2(C)O1` was run?
Its Activity is “inactive”.

What about the Activity [9] of the same molecule?
Its Activity is “inactive”.

What about the Activity [10] of the same molecule?
Its Activity is “inactive”.

What about the Activity [11] of the same molecule?
Its Activity is “inactive”.

What about the Activity [12] of the same molecule?
Its Activity is “inactive”.

What about the Activity [13] of the same molecule?
The Activity was “inactive”.

What about the Activity [14] of the same molecule?
The Activity was “inactive”.

`C=C[C@@]1(C)CC[C@@H]2[C@@]3(C)CCCC(C)(C)[C@@H]3[C@@H](OC(C)=O)C[C@@]2(C)O1` was tested. Which Activity [8] did it give?
Its Activity is “inactive”.

And the Activity [9]?
Its Activity is “inactive”.

What about the Activity [10] of the same molecule?
Its Activity is “inactive”.

What about the Activity [11] of the same molecule?
The Activity was “inactive”.

And the Activity [12]?
The Activity was “inactive”.

And the Activity [13]?
The Activity was “inactive”.

What about the Activity [14] of the same molecule?
The Activity was “inactive”.
